Measurements from US20230118142A1, “AGENTS FOR USE IN THE TREATMENT OF TISSUE DAMAGE” (UCL BUSINESS LTD, priority 2020, published 2023).

Experiments:
[1] = target: T1, CRP (Homo sapiens, UniProt P02741); assay: Immobilised phosphocholine plate assay (125I-CRP binding); parameters: The final concentrations were 0.73 μM native pentameric CRP; from tissue; settings: read-out: IC50 for inhibition of 125I-CRP binding to immobilised phosphocholine
T1 sequence (P02741 19-224): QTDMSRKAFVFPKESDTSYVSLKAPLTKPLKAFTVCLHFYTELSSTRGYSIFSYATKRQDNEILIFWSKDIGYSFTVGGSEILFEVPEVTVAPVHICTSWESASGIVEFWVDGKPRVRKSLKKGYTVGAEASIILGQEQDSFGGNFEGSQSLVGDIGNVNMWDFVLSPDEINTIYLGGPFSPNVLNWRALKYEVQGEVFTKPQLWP
Description: (i) Phosphocholine was immobilised on Greiner NHS-activated microtitre plates by incubation with 4-aminophenyl-1-phosphocholine. Remaining active sites were blocked by incubation with 4% w/v BSA in TC buffer (TCB).
(ii) Human CRP at 1 μg/ml in TC buffer was spiked with ^125I-labelled CRP to provide 10^6 cpm/ml.
(iii) Compounds were prepared from up to 10 mM stock solutions by dilution in TC buffer to 0.5 mM (labelled S1). Serial dilutions were prepared by diluting 100 μl ligand solution with 200 μl TC buffer (S2-S10). A ligand-free control was also used (SO, TC only).
(iv) A 100 μl volume of CRP solution was incubated with 10 μl of each compound (S1-S10, SO) for 1 h at room temperature without stirring, to provide final ligand concentrations across the range 45.5 μM-6.9 nM with a ligand:CRP monomer molar ratio of 1151-0.06. In some cases, single fixed ligand concentrations were also assayed in comparison with PC.
(v) A 100 μl volume of each CRP-ligand mixture was added to the plate wells and incubated for 2 h at room temperature. Solutions were then discarded and the plates washed with TCB buffer. Bound radioactivity was measured (1 min counts) using a gamma counter (Perkin Elmer Wizard 2470).
(vi) Data were plotted with Sigmaplot v14 software using the 4-parameter logistic curve y=min+(max−min)/(1+(x/EC50)^−Hill slope) to calculate IC50.

[2] = target: T1, CRP; assay: Roche immunoturbidimetric assay: pure CRP; format: binding; parameters: The final concentrations were 0.73 μM native pentameric CRP; from tissue; settings: pure CRP in TC buffer; read-out: IC50 (μM), SD; inhibition of Roche CRP immunoreactivity
Summary of the method: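 Purified human CRP (final 0.73 μM pentamer) incubated 1 h at 37° C with ligand (final 625-0.03 μM) in TC buffer. Remaining CRP quantified by Roche microparticle-enhanced immunoturbidimetric assay, one antibody recognising the ligand-binding B-face, as % of buffer control; EC50 from 4-parameter logistic fit.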

[3] = target: T1, CRP; assay: Stability of pre-formed CRP/ligand complexes in vitro (mouse plasma, whole blood, shear forces, dialysis); parameters: from tissue
Description: Pre-formed complexes of CRP/Pk-023 (with 5-fold molar excess of ligand over CRP pentamer), or CRP alone, were co-incubated, unstirred, in TC buffer (control), fresh mouse heparinised plasma or fresh heparinised whole mouse blood at 37° C. for up to 3 hours. CRP concentrations in plasma were then measured by Roche immunoassay. […] On addition of EDTA to dissociate CRP ligand binding, Roche CRP concentrations in all CRP/Pk-023 samples recovered to ˜70% of control values showing that the protein was still present and immunoreactive.
To determine whether shear forces might have an effect on stability, pre-formed CRP/Pk-023 complexes prepared with either a 2.5- or 5-fold molar excess of ligand were added to heparinised mouse plasma and stirred rapidly at room temperature for 3 h.
CRP/Pk-023 complexes formed at 5-fold ligand excess were stable during exhaustive dialysis against TC buffer for up to 96 h at room temperature, as shown by the Roche CRP assay values. After 30 h, ˜8% of the complex had dissociated, with a further 2.5% dissociation at 96 h. Similarly, CRP/Pk-023 complexes pre-formed in serum were stable during dialysis against TC buffer for 24 h at room temperature with shear forces produced by a magnetic stir bar inserted into the dialysis tubing. ^125I-CRP was included to correct for dilution account for any effects of dilution.

## O=P(O)(OCCCCCCCCOP(=O)(O)O[C@@H]1CN2CCC1CC2)O[C@@H]1CN2CCC1CC2 [Pk-023, [(3S)-1-azabicyclo[2.2.2]octan-3-yloxy]({[8-({[(3S)-1-azabicyclo[2.2.2]octan-3-yloxy](hydroxy)phosphoryl}oxy)octyl]oxy})phosphinic acid]
[1]
  IC50: 150 nM
[2]
  IC50: 0.6 µM
[3]; 2.5- or 5-fold ligand excess, heparinised mouse plasma, stirred rapidly, room temperature, 3 h
  Stability of complex to shear forces (Roche CRP reactivity): stable throughout the experiment
[3]; 5-fold ligand excess, room temperature, after 30 h
  Complex dissociated during dialysis against TC buffer: ~8%
[3]; 5-fold ligand excess, TC buffer, mouse heparinised plasma or whole mouse blood, 37° C., up to 3 hours
  Stability of pre-formed CRP/ligand complex (Roche CRP): stable throughout the experiment
[3]; after incubation in mouse plasma/whole blood
  Roche CRP concentration recovered on addition of EDTA: ~70 % of control values
[3]; at 96 h
  Further dissociation of complex during dialysis: 2.5%
[3]; dialysis against TC buffer 24 h, room temperature, with shear forces
  Stability of complexes pre-formed in serum during dialysis: stable
